{
  "source": "paper PMC11500415",
  "about": "“Chemical inhibition of stomatal differentiation by perturbation of the master-regulatory bHLH heterodimer via an ACT-Like domain” (Nature Communications, 2024)",
  "target": "T1, MUTE_ACTLE162A_E163A (Arabidopsis thaliana, UniProt Q9M8K6, E162A/E163A)",
  "T1 construct": "MUTE-ACTL (114-202); made in house; host or cells: E. coli BL21",
  "T1 sequence (Q9M8K6 114-202 E162A/E163A)": "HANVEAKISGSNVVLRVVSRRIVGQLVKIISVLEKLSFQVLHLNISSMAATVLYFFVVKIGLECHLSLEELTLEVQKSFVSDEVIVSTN",
  "test": "BLI direct binding",
  "design": "species or system A. thaliana",
  "details": "for koff: read-out: kdis(1/s), MUTE_E162A_E163A on Anti-GST sensor",
  "text": "A. thaliana SCRM (1-494), ΔNSPCH (98-364), MUTE (1-202), ΔNFAMA (190-414), MUTEΔC (1-114), MUTER133A_R134A, MUTEE162A_E163A, MUTER133A_R134A_E162A_E163A, SCRM-ACTL (405-494), MUTE-ACTL (114-202), SPCH-ACTL (285-364), FAMA-ACTL (306-414), MUTE_ACTLR133A_R134A, MUTE_ACTLE162A_E163A, MUTE_ACTLR133A_R134A_E162A_E163A were cloned into pGEX-4T-1 vector with an N-terminal GST tag and a thrombin cleavage sequence. For protein expression, the constructs were transformed into E. coli strain BL21. For each transformant, a single colony was selected and incubated in 10 ml LB liquid media. The overnight-incubated E. coli suspensions were transferred to 1 L LB medium and incubated at 37 °C for around 2 h until the OD600 reached 0.4–0.6. The isopropyl β-D-1-thiogalactopyranoside ([…] of final concentration) was added to the cultures and the strains were incubated at 22 °C for a further 18 h. GST-fused proteins were purified using glutathione agarose resin. The soluble portion of the cell lysate was loaded onto a GST-Sepharose column. Nonspecifically bound proteins were removed by washing the column with 20 mM Tris pH 8.0, 200 mM NaCl. The bound GST-fused protein was eluted with 10 mm glutathione and 20 mM Tris pH 8.0, 200 mM NaCl. The GST-fused proteins were exchanged with phosphate-buffered saline buffer, and then the solution was treated with 50 μg of thrombin for 10–12 h at 16 ^οC. The GST portion of the protein was cleaved during thrombin digestion, and then the whole solution was reloaded onto the glutathione S-transferase column to obtain pure protein. The purified proteins were further purified by gel filtration on a Superdex-200 (GE) column using fast protein liquid chromatography and phosphate buffer (pH 7.2) as the eluent. The purity of the protein was checked by SDS-PAGE. For detailed lists of oligo DNA and plasmid information, see Supplementary Tables 5, 6, respectively.\nThe binding affinities of SCRM to MUTE / MUTER133A_R134A / MUTEE162A_E163A / MUTER133A_R134A_E162A_E163A in presence and absence of Stomidazolone (3) and its analogues (AYSJ1059 (5) and AYSJ1061 (6)), and Stomidazolone / AYSJ1059 / AYSJ1061 interactions with GST-tagged SCRM, MUTE, SPCH, FAMA, MUTE ΔACTL, MUTE_ACTL, SCRM_ACTL, SPCH_ACTL and FAMA_ACTL, MUTER133A_134A, MUTEE162A_E163A, MUTER133A_R134A_E162A_E163A were measured using the Octet Red96 system (ForteBio, Pall Life Sciences) following the manufacturer’s protocols. The optical probes coated with anti-GST were first loaded with 500 nM GST tagged proteins before kinetic binding analyses. The experiment was performed in 96-well plates maintained at 30 °C. Each well was loaded with 200 μL reaction volume for the experiment. The binding buffer used in these experiments contained 1× PBS supplemented with 2% DMSO, 0.02% Tween20. The concentrations of the Stomidazolone as the analyte in the binding buffer were 100, 50, 25, 12.5, 6.25, 3.12, and 1.56 μM. There was no binding of the analytes to the unloaded probes as shown by the control wells. Binding kinetics to all seven concentrations of the analytes were measured simultaneously using default parameters on the instrument. The data were analyzed using the Octet data analysis software. The association and dissociation curves were fit with the 1:1 homogeneous ligand model. The kobs (observed rate constant) values were used to calculate Kd, with steady-state analysis of the direct binding. See Supplementary Table 3 for details.",
  "key": {"[1]": {"details": "MUTE_E162A_E163A on Anti-GST sensor, Stomid 3.12 µM, rep-1, rep-2"}, "[2]": {"details": "MUTE_E162A_E163A on Anti-GST sensor, Stomid 6.25 µM, rep-1, rep-2"}, "[3]": {"details": "MUTE_E162A_E163A on Anti-GST sensor, Stomid 12.5 µM, rep-1, rep-2"}, "[4]": {"details": "MUTE_E162A_E163A on Anti-GST sensor, Stomid 25 µM, rep-1, rep-2"}, "[5]": {"details": "MUTE_E162A_E163A on Anti-GST sensor, Stomid 50 µM, rep-1, rep-2"}, "[6]": {"details": "MUTE_E162A_E163A on Anti-GST sensor, Stomid 100 µM, rep-1, rep-2"}, "[7]": {"details": "MUTE_E162A_E163A on Anti-GST sensor, Stomid 200 µM, rep-1, rep-2"}},
  "note": "Several values for one entry are separate records, joined by “and”; a condition that tells them apart may be missing. Equal values may be shown once. Read-outs that look alike come from different tables or passages of the source.",
  "data": [
    {"molecule": "O=C1C(c2ccccc2)=NC(NS(=O)(=O)c2ccccc2)(c2ccccc2)N1S(=O)(=O)c1ccccc1", "note": "(stereo not drawn) [Stomidazolone]", "values": [
      {"measurement": "Kd", "setting": "BLI steady state, MUTE_ACTL E162A_E163A, read-out: KD (SS)", "value": "125 ± 12", "unit": "µM"},
      {"measurement": "Kd", "setting": "BLI, MUTE_ACTL E162A_E163A, read-out: KD", "value": "88.3 ± 5.5", "unit": "µM"},
      {"measurement": "RMax", "setting": "[1]", "value": "0.032 and 0.02"},
      {"measurement": "Response", "setting": "[1]", "value": "0.0312 and 0.0195"},
      {"measurement": "Kd", "setting": "MUTE_E162A_E163A on Anti-GST sensor, Stomid 3.12 µM, rep-1, rep-2, read-out: KD", "value": 86.2, "unit": "µM"},
      {"measurement": "RMax", "setting": "[2]", "value": "0.055 and 0.045"},
      {"measurement": "Req/Rmax(%)", "setting": "[2]", "value": "86.2% and 99.9%"},
      {"measurement": "Response", "setting": "[2]", "value": "0.053 and 0.041"},
      {"measurement": "kdis", "setting": "[2]", "value": 0.25, "unit": "s⁻¹"},
      {"measurement": "kon", "setting": "[2]", "value": 2770, "unit": "M⁻¹ s⁻¹"},
      {"measurement": "Kd", "setting": "MUTE_E162A_E163A on Anti-GST sensor, Stomid 6.25 µM, rep-1, rep-2, read-out: KD", "value": "84.8 µM and 90.2 µM"},
      {"measurement": "RMax", "setting": "[3]", "value": "0.07 and 0.08"},
      {"measurement": "Req/Rmax(%)", "setting": "[3]", "value": "86.2% and 95.1%"},
      {"measurement": "Response", "setting": "[3]", "value": "0.065 and 0.078"},
      {"measurement": "kobs", "setting": "[3]", "value": "0.00218 s⁻¹ and 0.00344 s⁻¹"},
      {"measurement": "kon", "setting": "[3]", "value": 2790, "unit": "M⁻¹ s⁻¹"},
      {"measurement": "Kd", "setting": "MUTE_E162A_E163A on Anti-GST sensor, Stomid 12.5 µM, rep-1, rep-2, read-out: KD", "value": "85.4 µM and 87.9 µM"},
      {"measurement": "Req/Rmax(%)", "setting": "[4]", "value": "83.8% and 88.2%"},
      {"measurement": "kdis", "setting": "[4]", "value": 0.251, "unit": "s⁻¹"},
      {"measurement": "kobs", "setting": "[4]", "value": "0.0028 s⁻¹ and 0.00329 s⁻¹"},
      {"measurement": "kon", "setting": "[4]", "value": 2870, "unit": "M⁻¹ s⁻¹"},
      {"measurement": "Kd", "setting": "MUTE_E162A_E163A on Anti-GST sensor, Stomid 25 µM, rep-1, rep-2, read-out: KD", "value": "87.7 µM and 87.3 µM"},
      {"measurement": "RMax", "setting": "[5]", "value": "0.145 and 0.18"},
      {"measurement": "Req/Rmax(%)", "setting": "[5]", "value": "89.7% and 82.4%"},
      {"measurement": "Response", "setting": "[5]", "value": "0.141 and 0.171"},
      {"measurement": "kobs", "setting": "[5]", "value": "0.00431 s⁻¹ and 0.00272 s⁻¹"},
      {"measurement": "kon", "setting": "[5]", "value": 2770, "unit": "M⁻¹ s⁻¹"},
      {"measurement": "Kd", "setting": "MUTE_E162A_E163A on Anti-GST sensor, Stomid 50 µM, rep-1, rep-2, read-out: KD", "value": "87.7 µM and 89 µM"},
      {"measurement": "RMax", "setting": "[6]", "value": "0.256 and 0.23"},
      {"measurement": "Req/Rmax(%)", "setting": "[6]", "value": "98.6% and 97.1%"},
      {"measurement": "Response", "setting": "[6]", "value": "0.254 and 0.2296"},
      {"measurement": "kdis", "setting": "[6]", "value": 0.248, "unit": "s⁻¹"},
      {"measurement": "kobs", "setting": "[6]", "value": "0.0129 s⁻¹ and 0.00842 s⁻¹"},
      {"measurement": "kon", "setting": "[6]", "value": 2860, "unit": "M⁻¹ s⁻¹"},
      {"measurement": "Kd", "setting": "MUTE_E162A_E163A on Anti-GST sensor, Stomid 100 µM, rep-1, rep-2, read-out: KD", "value": "88.7 µM and 86.6 µM"},
      {"measurement": "RMax", "setting": "[7]", "value": "0.275 and 0.3"},
      {"measurement": "Req/Rmax(%)", "setting": "[7]", "value": 100, "unit": "%"},
      {"measurement": "Response", "setting": "[7]", "value": "0.272 and 0.292"},
      {"measurement": "kobs", "setting": "[7]", "value": 0.0343, "unit": "s⁻¹"},
      {"measurement": "Kd", "setting": "MUTE_E162A_E163A on Anti-GST sensor, Stomid 200 µM, rep-1, rep-2, read-out: KD", "value": 89.2, "unit": "µM"},
      {"measurement": "koff", "setting": "Stomid 3.12 µM, rep-1, rep-2", "value": 0.243, "unit": "s⁻¹"},
      {"measurement": "koff", "setting": "Stomid 6.25 µM, rep-1, rep-2", "value": 0.242, "unit": "s⁻¹"},
      {"measurement": "koff", "setting": "Stomid 12.5 µM, rep-1, rep-2", "value": 0.245, "unit": "s⁻¹"},
      {"measurement": "koff", "setting": "Stomid 25 µM, rep-1, rep-2", "value": 0.246, "unit": "s⁻¹"},
      {"measurement": "koff", "setting": "Stomid 50 µM, rep-1, rep-2", "value": 0.246, "unit": "s⁻¹"},
      {"measurement": "koff", "setting": "Stomid 100 µM, rep-1, rep-2", "value": 0.247, "unit": "s⁻¹"},
      {"measurement": "koff", "setting": "Stomid 200 µM, rep-1, rep-2", "value": 0.25, "unit": "s⁻¹"},
      {"measurement": "kon", "setting": "read-out: kon(1/Ms), MUTE_E162A_E163A on Anti-GST sensor, Stomid 3.12 µM, rep-1, rep-2", "value": 2830, "unit": "M⁻¹ s⁻¹"},
      {"measurement": "kon", "setting": "read-out: kon(1/Ms), MUTE_E162A_E163A on Anti-GST sensor, Stomid 6.25 µM, rep-1, rep-2", "value": 2850, "unit": "M⁻¹ s⁻¹"},
      {"measurement": "kon", "setting": "read-out: kon(1/Ms), MUTE_E162A_E163A on Anti-GST sensor, Stomid 12.5 µM, rep-1, rep-2", "value": 2870, "unit": "M⁻¹ s⁻¹"},
      {"measurement": "kon", "setting": "read-out: kon(1/Ms), MUTE_E162A_E163A on Anti-GST sensor, Stomid 25 µM, rep-1, rep-2", "value": 2800, "unit": "M⁻¹ s⁻¹"},
      {"measurement": "kon", "setting": "read-out: kon(1/Ms), MUTE_E162A_E163A on Anti-GST sensor, Stomid 50 µM, rep-1, rep-2", "value": 2810, "unit": "M⁻¹ s⁻¹"},
      {"measurement": "kon", "setting": "read-out: kon(1/Ms), MUTE_E162A_E163A on Anti-GST sensor, Stomid 100 µM, rep-1, rep-2", "value": 2780, "unit": "M⁻¹ s⁻¹"},
      {"measurement": "kon", "setting": "read-out: kon(1/Ms), MUTE_E162A_E163A on Anti-GST sensor, Stomid 200 µM, rep-1, rep-2", "value": 2800, "unit": "M⁻¹ s⁻¹"}
    ]}
  ]
}
